Key:
[1] = tested on: human colorectal carcinoma cells (HCT116 ATCC CCL-247); assay: Cytotoxicity assay (Alamar blue), HCT116; assay type: cell-based; conditions: for IC50: Homo sapiens, HCT-116, 72 h incubation, average ± SD, Inactive = inhibition above 300 μM, read-out: IC50 HCT (cancer cell line)
Protocol: (§1) The cells (human foreskin BJ fibroblast cells (ATCC CRL-2522), green monkey kidney cells Vero (ATCC CCL-81), human breast adenocarcinoma cells (ATCC HTB-26 MDA-MB 231), human breast adenocarcinoma cells (MCF7 ATCC HTB-22), and human colorectal carcinoma cells (HCT116 ATCC CCL-247)) were grown to 80% confluency, the cells were counted, diluted, and plated into treated 96-well cell culture plates. The BJ fibroblast and Vero cells were plated at a cell density of 10 000 cells per well and the HTB26, HCT116 and MCF7 cells were plated at cell density of 5000 cells per well in 90 μL of respective growth medium (without the addition of antibiotics) and incubated for 24 h to allow cells to adhere to the plates before treatment. Pure compounds were tested in triplicate in serial dilutions of seven concentrations ranging from 2 to 128 μg mL^−1 per well (final well volume of 100 μL, 1% DMSO per well). Each of the cell lines were incubated at 37 °C in a humidified atmosphere of 5% CO2; the BJ fibroblast and Vero cells for 24 h and the HTB-26, HCT116 and MCF7 cells for 72 h. Each plate contained four uninoculated positive controls, four untreated negative controls, and one column containing a concentration range for doxorubicin. Alamar blue was added, 24 h after the treatment, and fluorescence was monitored using a Cytation Gen 5 plate reader using 560 nm Ex/590 Em both at time zero and 4 h after Alamar blue addition. The inferred percentage of cell viability relative to vehicle control wells were calculated after subtracting the time zero emission 590 nm measurement from the final reading and the IC50 was determined. […]
(§2) Cytotoxicity Assay Data Alamar blue was added, 24 h after the treatment, and fluorescence was monitored using a Cytation Gen 5 plate reader using 560 nm Ex/590 Em both at time zero and 4 h after Alamar blue addition. The inferred percentage of cell viability relative to vehicle control wells were calculated after subtracting the time zero emission 590 nm measurement from the final reading and the IC50 was determined.

[2] = tested on: human foreskin BJ fibroblast cells (ATCC CRL-2522); assay: Cytotoxicity assay (Alamar blue), BJ; assay type: cell-based; conditions: for IC50: Homo sapiens, Fibroblast, 24 h incubation, average ± SD, Inactive = inhibition above 300 μM, read-out: IC50 BJ (normal cell line)
Protocol: as §1, §2

[3] = tested on: methicillin-resistant Staphylococcus aureus MRSA 310; assay: Antimicrobial assay, MRSA (PrestoBlue fluorescence); assay type: cell-based
Protocol: (§3) The microorganisms (methicillin-resistant S. aureus MRSA 310, vancomycin-resistant E. faecium VRE 379, S. warneri (ATCC 17917), P. vulgaris (ATCC 12454), P. aeruginosa (ATCC 14210), and C. albicans (ATCC 14035)) were grown overnight on agar media. The following day the cultures were transferred into 0.9% saline water into a sterile glass tube. Using the McFarland reader, the turbidity was determined and further diluted into their respective media. The pure compounds were tested at seven different concentrations ranging from 2 to 128 μg mL^−1 in triplicate. Samples were plated into 96 well plates (10 μL in 20% DMSO) and then diluted pathogen (90 μL) was pipetted into the pre-prepared sample plates yielding 5 × 10^5 cfu mL^−1 with a final volume of 100 μL. Antibiotics that are active against specific pathogens were used as positive controls. The plates were incubated into a 37 °C incubator for 22 h. Growth of S. warneri. P. vulgaris, P. aeruginosa and C. albicans were measured by reading optical density (OD600), or in the case of slow growing microorganisms (MRSA and VRE), PrestoBlue was used to assess metabolic activity by measuring fluorescence (535–560)/(590–615) (excitation/emission) using a Thermo Scientific Varioskan Flash plate reader at time zero and then again after incubation of the plates for 22 h at 37 °C. After subtracting the time zero OD600 from the final reading, the percentages of microorganism survival relative to vehicle control wells were calculated. […]
(§4) Antimicrobial Assay Data Growth of S. warneri. P. vulgaris, P. aeruginosa and C. albicans were measured by reading optical density (OD600), or in the case of slow growing microorganisms (MRSA and VRE), PrestoBlue was used to assess metabolic activity by measuring fluorescence (535-560)⁄(590-615) (excitation/emission) using a Thermo Scientific Varioskan Flash plate reader at time zero and then again after incubation of the plates for 22 h at 37 °C. After subtracting the time zero OD600 from the final reading, the percentages of microorganism survival relative to vehicle control wells were calculated. […]

[4] = tested on: Staphylococcus warneri (ATCC 17917); assay: Antimicrobial assay, S. warneri (OD600); assay type: cell-based
Protocol: as §3, §4

[5] = tested on: human breast adenocarcinoma cells (ATCC HTB-26 MDA-MB 231); assay: Cytotoxicity assay (Alamar blue), HTB-26; assay type: cell-based; conditions: for IC50: Homo sapiens, HTB26, 72 h incubation, average ± SD, Inactive = inhibition above 300 μM, read-out: IC50 HTB (cancer cell line)
Protocol: as §1, §2

[6] = tested on: Pseudomonas aeruginosa (ATCC 14210); assay: Antimicrobial assay, P. aeruginosa (OD600); assay type: cell-based
Protocol: as §3, §4

[7] = tested on: Proteus vulgaris (ATCC 12454); assay: Antimicrobial assay, P. vulgaris (OD600); assay type: cell-based
Protocol: as §3, §4

[8] = tested on: green monkey kidney cells Vero (ATCC CCL-81); assay: Cytotoxicity assay (Alamar blue), Vero; assay type: cell-based; conditions: for IC50: Chlorocebus sabaeus, Vero, 24 h incubation, average ± SD, Inactive = inhibition above 300 μM, read-out: IC50 Vero (normal cell line)
Protocol: as §1, §2

[9] = tested on: human breast adenocarcinoma cells (MCF7 ATCC HTB-22); assay: Cytotoxicity assay (Alamar blue), MCF7; assay type: cell-based; conditions: for IC50: Homo sapiens, MCF7, 72 h incubation, average ± SD, Inactive = inhibition above 300 μM, read-out: IC50 MCF7 (cancer cell line)
Protocol: as §1, §2

[10] = tested on: vancomycin-resistant Enterococcus faecium VRE 379; assay: Antimicrobial assay, VRE (PrestoBlue fluorescence); assay type: cell-based
Protocol: as §3, §4

[11] = tested on: Candida albicans (ATCC 14035); assay: Antimicrobial assay, C. albicans (OD600); assay type: cell-based
Protocol: as §3, §4

MRSA = tested on: MRSA; parameters: method as in doi:10.1139/cjc-2018-0193; conditions: data collected in previous study; Inactive = inhibition above 400 μM; cited from earlier work
[12] = tested on: vancomycin-resistant Enterococcus; parameters: method as in doi:10.1139/cjc-2018-0193; conditions: data collected in previous study, Inactive = inhibition above 400 μM, cited from earlier work
[13] = 22 h, 37 °C, Inactive = inhibition above 300 μM
[14] = 22 h, 37 °C, average ± SD, Inactive = inhibition above 300 μM

Row | Compound | cytotoxic activity against HCT116 (in words) [1] | IC50 [1] [µM] | cytotoxic activity against BJ (in words) [2] | IC50 [2] [µM] | antimicrobial activity against MRSA (in words) [3] | antimicrobial activity against S. warneri (in words) [4] | cytotoxic activity against HTB-26 MDA-MB 231 (in words) [5] | IC50 [5] [µM] | antimicrobial activity against P. aeruginosa (in words) [6] | antimicrobial activity against P. vulgaris (in words) [7] | cytotoxic activity against Vero (in words) [8] | IC50 [8] [µM] | cytotoxic activity against MCF7 (in words) [9] | IC50 [9] [µM] | antimicrobial activity against VRE (in words) [10] | antimicrobial activity against C. albicans (in words) [11] | IC50 (MRSA) [µM] | MRSA MIC90 (MRSA) | VRE IC50 [12] | VRE MIC90 [12] | further results
1 | CCCCCCCCCC(=O)N(Cc1ccc(OC)c(OC)c1)c1ccc(B2OC(C)(C)C(C)(C)O2)cc1 [Compound 24, N-(3,4-dimethoxyphenylmethyl)-N-[4-(4,4,5,5-tetramethyl-1,3,2-dioxaborolan-2-yl)phenyl]-decanamide] | unselective cytotoxic effects | 33.8 ± 2.1 | unselective cytotoxic effects | 36.1 ± 0.8 | inactive | inactive | unselective cytotoxic effects | 25.2 ± 1.3 | inactive | inactive | unselective cytotoxic effects | 26.9 ± 4.4 | unselective cytotoxic effects | 24.1 ± 3.8 | inactive | inactive | – | – | – | – | melting point: 58.1 to 59.8 °C
2 | OB(O)c1ccccc1 [Phenylboronic acid] | – | – | – | – | – | – | – | – | – | – | – | – | – | – | – | – | 170 | Inactive | Inactive | Inactive | –
3 | COc1cc(CNC(=O)CCCC/C=C/C(C)C)ccc1O [Capsaicin] | – | – | – | – | – | – | – | – | – | – | – | – | – | – | – | – | – | Inactive | Inactive | Inactive | MRSA IC50 (MRSA): Inactive
4 | COc1cc(CNC(=O)CCCCCCCCCCB2OC(C)(C)C(C)(C)O2)ccc1OCc1ccccc1 [Compound 8b] | – | – | – | – | – | – | – | – | – | – | – | – | – | – | – | – | 245 | Inactive | – | Inactive | IC50 ([12]; read-out: VRE IC50): 277 µM
5 | CCCCc1ccc(N(Cc2ccc(OC)c(OC)c2)C(=O)CCCCCCCCB2OC(C)(C)C(C)(C)O2)cc1 [Compound 33, N-(4-butylphenyl)-N-(3,4-dimethoxybenzyl)-9-(4,4,5,5-tetramethyl-1,3,2-dioxaborolan-2-yl)nonamide] | unselective cytotoxic effects | 20.3 ± 0.7 | unselective cytotoxic effects | 24.2 ± 0.2 | inactive | inactive | unselective cytotoxic effects | 21.2 ± 3.5 | inactive | inactive | unselective cytotoxic effects | 20.9 ± 1.2 | unselective cytotoxic effects | 3.4 ± 2.2 | inactive | inactive | – | – | – | – | –
6 | CCCCCC(=O)N(Cc1ccc(OC)c(OC)c1)c1ccccc1 [Compound 21, N-(3,4-dimethoxyphenylmethyl)-N-(phenyl)-hexanamide] | – | – | – | – | – | – | – | – | – | – | – | – | – | – | – | – | – | – | – | – | melting point: 31.5 to 33.8 °C
7 | COc1cc(CNC(=O)CCCCB2OC(C)(C)C(C)(C)O2)ccc1OCc1ccccc1 [Compound 8a] | – | – | – | – | – | – | – | – | – | – | – | – | – | – | – | – | 107 | Inactive | Inactive | Inactive | –
8 | COc1ccc(CN(C(=O)CCCCCCCCB2OC(C)(C)C(C)(C)O2)c2ccccc2)cc1OC [Compound 32, N-(3,4-dimethoxybenzyl)-N-phenyl-9-(4,4,5,5-tetramethyl-1,3,2-dioxaborolan-2-yl)nonamide] | unselective cytotoxic effects | 80.1 ± 3.9 | unselective cytotoxic effects | 112 ± 10 | only active against MRSA | – | unselective cytotoxic effects | 42.6 ± 1.8 | – | – | unselective cytotoxic effects | 77.1 ± 8.4 | unselective cytotoxic effects | 68.5 ± 15.1 | – | – | – | – | – | – | MRSA MIC90 ([3]; 22 h, 37 °C, concentration for 90% growth inhibition, Inactive = inhibition above 300 μM): Inactive; IC50 ([3]; Staphylococcus aureus, MRSA, 22 h, 37 °C, average ± SD, Inactive = inhibition above 300 μM, read-out: MRSA IC50): 154 ± 37.1 µM; S. warneri MIC90 [4, 13]: Inactive; S. warneri IC50 [4, 14]: Inactive; VRE MIC90 [10, 13]: Inactive; VRE IC50 [10, 14]: Inactive
9 | CCCCCCCCCCCCCCc1ccc(N(Cc2ccc(OC)c(OC)c2)C(=O)CCCCCCCCB2OC(C)(C)C(C)(C)O2)cc1 [Compound 34, N-(3,4-dimethoxybenzyl)-N-(4-tetradecylphenyl)-9-(4,4,5,5-tetramethyl-1,3,2-dioxaborolan-2-yl)nonamide] | inactive | – | inactive | – | inactive | inactive | inactive | – | inactive | inactive | inactive | – | inactive | – | inactive | inactive | – | – | – | – | –

— article PMC9036659, “Boron-containing capsaicinoids” (RSC Advances, 2021)
